How the values were obtained:
Format in all cases: in vivo
[1] = test system: Echinochloa crus-galli (ECHCG); assay: Pre-emergence herbicidal activity, glasshouse pot test; conditions: Echinochloa crus-galli, 312 h; Rate 250 g/ha; pre-emergence spray; evaluated after 13 days; read-out: Pre-emergence activity ECHCG (100=total damage to plant; 0=no damage to plant)
Method: (§1) Seeds of a variety of test species were sown in standard soil in pots. After cultivation for one day (pre-emergence) or after 8 days cultivation (post-emergence) under controlled conditions in a glasshouse (at 24/16° C., day/night; 14 hours light; 65% humidity), the plants were sprayed with an aqueous spray solution derived from the formulation of the technical active ingredient in acetone/water (50:50) solution containing 0.5% Tween 20 (polyoxyethelyene sorbitan monolaurate, CAS RN 9005-64-5). The test plants were then grown in a glasshouse under controlled conditions in a glasshouse (at 24/16° C., day/night; 14 hours light; 65% humidity) and watered twice daily. After 13 days for pre and post-emergence, the test was evaluated (100=total damage to plant; 0=no damage to plant).
(§2) Lolium perenne (LOLPE), Alopecurus myosuroides (ALOMY), Echinochloa crus-galli (ECHCG), and Avena fatua (AVEFA).

[2] = test system: Alopecurus myosuroides (ALOMY); assay: as above; conditions: Alopecurus myosuroides, 312 h; Rate 250 g/ha; pre-emergence spray; evaluated after 13 days; read-out: Pre-emergence activity ALOMY (100=total damage to plant; 0=no damage to plant)
Method: as §1, §2

[3] = test system: Avena fatua (AVEFA); assay: as above; conditions: Avena fatua, 312 h; Rate 250 g/ha; pre-emergence spray; evaluated after 13 days; read-out: Pre-emergence activity AVEFA (100=total damage to plant; 0=no damage to plant)
Method: as §1, §2

[4] = test system: Lolium perenne (LOLPE); assay: as above; conditions: Lolium perenne, 312 h; Rate 250 g/ha; pre-emergence spray; evaluated after 13 days; read-out: Pre-emergence activity LOLPE (100=total damage to plant; 0=no damage to plant)
Method: as §1, §2

[5] = test system: Echinochloa crus-galli (ECHCG); assay: Post-emergence herbicidal activity, glasshouse pot test; conditions: Echinochloa crus-galli, 312 h, rate 250 g/ha, evaluated after 13 days, glasshouse, read-out: Post-emergence activity ECHCG (100=total damage to plant; 0=no damage to plant)
Method: as §1, §2

[6] = test system: Alopecurus myosuroides (ALOMY); assay: as above; conditions: Alopecurus myosuroides, 312 h, rate 250 g/ha, evaluated after 13 days, glasshouse, read-out: Post-emergence activity ALOMY (100=total damage to plant; 0=no damage to plant)
Method: as §1, §2

[7] = test system: Avena fatua (AVEFA); assay: as above; conditions: Avena fatua, 312 h, rate 250 g/ha, evaluated after 13 days, glasshouse, read-out: Post-emergence activity AVEFA (100=total damage to plant; 0=no damage to plant)
Method: as §1, §2

[8] = test system: Lolium perenne (LOLPE); assay: as above; conditions: Lolium perenne, 312 h, rate 250 g/ha, evaluated after 13 days, glasshouse, read-out: Post-emergence activity LOLPE (100=total damage to plant; 0=no damage to plant)
Method: as §1, §2

SMILES	pest or weed control at 250 g/ha [1] [%]	pest or weed control at 250 g/ha [2] [%]	pest or weed control at 250 g/ha [3] [%]	pest or weed control at 250 g/ha [4] [%]	pest or weed control at 250 g/ha [5] [%]	pest or weed control at 250 g/ha [6] [%]	pest or weed control at 250 g/ha [7] [%]	pest or weed control at 250 g/ha [8] [%]
CCc1ccc(Oc2ccc(F)cc2)cc1C1=C(O)CCCC1=O [Example A-29]	40	0	10	30	70	0	0	10
CCc1ccc(Oc2ccc(Cl)cc2F)cc1C1=C(O)CC(C)(C)CC1=O [Example A-30]	80	70	50	70	100	70	60	60
CCc1ccc(Oc2ccc(Cl)c(F)c2)cc1C1=C(O)C(C)(C)OC(C)(C)C1=O [Example A-31]	100	90	80	100	100	90	80	100
CCc1ccc(Oc2cccc(Br)c2)cc1C1=C(O)C(C)(C)OC(C)(C)C1=O [Example A-32]	90	30	20	80	100	30	20	40
CCc1ccc(Oc2ccc(F)cc2Cl)cc1C1=C(O)C(C)(C)OC(C)(C)C1=O [Example A-33]	90	20	10	80	100	40	50	50
CCc1ccc(Oc2ccc(C(F)(F)F)cn2)cc1C1=C(O)C(C)(C)OC(C)(C)C1=O [Example A-34]	100	100	100	100	100	100	100	100
CCc1ccc(Oc2ccc(F)cc2)cc1C1=C(O)CC2(CCOCC2)CC1=O [Example A-35]	100	90	70	70	100	80	90	80
CCc1ccc(Oc2ccc(Cl)cc2)cc1C1=C(O)CC2(CCOCC2)CC1=O [Example A-36]	100	90	90	90	100	100	100	90
CCc1ccc(Oc2ccc(Br)cc2)cc1C1=C(O)CC2(CCOCC2)CC1=O [Example A-37]	100	70	70	80	100	100	100	90
CCc1ccc(Oc2ccc(Cl)cc2F)cc1C1=C(O)CCCC1=O [Example A-38]	70	50	10	70	80	20	30	30
CCc1ccc(Oc2ccc(F)cc2Cl)cc1C1=C(O)CCCC1=O [Example A-39]	40	30	0	30	70	30	0	30
CCc1ccc(Oc2ccc(Cl)cc2Cl)cc1C1=C(O)CCCC1=O [Example A-40]	80	50	20	50	90	30	40	30
CCc1ccc(Oc2ccc(Br)cc2)cc1C1=C(O)CCCC1=O [Example A-41]	100	40	20	60	90	30	10	30
CCc1ccc(Oc2cccc(F)n2)cc1C1=C(O)C(C)(C)OC(C)(C)C1=O [Example A-43]	90	10	0	10	70	0	0	20
CCc1ccc(Oc2ncc(Cl)cc2Cl)cc1C1=C(O)C(C)(C)OC(C)(C)C1=O [Example A-44]	100	100	100	100	100	100	100	100
CCc1ccc(Oc2ncc(C(F)(F)F)cc2Cl)cc1C1=C(O)C(C)(C)OC(C)(C)C1=O [Example A-45]	100	100	100	100	100	100	100	100
CCc1ccc(Oc2ccc(Cl)c(F)c2)cc1C1=C(O)CC(C)(C)CC1=O [Example A-46]	90	100	30	70	100	80	50	60
CCc1ccc(Oc2ccc(F)cc2F)cc1C1=C(O)CC(C)(C)CC1=O [Example A-47]	90	50	0	40	80	30	10	30
CCc1ccc(Oc2ccc(Br)cc2)cc1C1=C(O)CC(C)(C)CC1=O [Example A-48]	100	100	30	70	100	80	40	70

Reference: US8865623B2, “Herbicidally active cyclic diones and derivatives thereof, processes for their preparation, compositions, and method of controlling weeds” (Syngenta Limited, priority 2009, dated 2014)
